Test results: US10435405B2, “Pyrazolopyridine compounds and uses thereof” (Incyte Corporation, priority 2016, dated 2019)

Target: HPK1 (Homo sapiens (Human), UniProt Q92918)
Experiment: HPK1 Kinase Binding Assay
Outline: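 This is a LanthaScreen tracer-binding format: a tracer 222/Eu-anti-GST antibody mix (18 nM and 4 nM solution) is added to active HPK1 (4 nM solution) with 3-fold, 11-point compound dilutions. Incubation is 1 h at 25 °C in HEPES pH 7.5 buffer before reading, and Ki is determined.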

Chain of HPK1 (Q92918 1-346): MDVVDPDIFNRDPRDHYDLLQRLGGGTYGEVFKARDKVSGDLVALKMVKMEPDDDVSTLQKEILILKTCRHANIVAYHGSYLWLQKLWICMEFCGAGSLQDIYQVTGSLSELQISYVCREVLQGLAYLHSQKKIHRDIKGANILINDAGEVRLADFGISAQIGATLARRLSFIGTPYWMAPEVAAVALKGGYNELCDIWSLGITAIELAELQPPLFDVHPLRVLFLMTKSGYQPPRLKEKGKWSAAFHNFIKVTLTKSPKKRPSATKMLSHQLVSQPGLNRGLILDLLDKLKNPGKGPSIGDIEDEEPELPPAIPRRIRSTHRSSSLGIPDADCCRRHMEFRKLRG

Ki [nM] | Structure (SMILES)
≤ 100 | CCNCc1cccc(-c2cc3c(-c4cnn(C)c4)n[nH]c3cn2)c1C(F)(F)F [Example 237, N-(3-(3-(1-Methyl-1H-pyrazol-4-yl)-1H-pyrazolo[3,4-c]pyridin-5-yl)-2-(trifluoromethyl)benzyl)ethanamine]
≤ 100 | CNC1CCCc2c1ccc(F)c2-c1cc2c(-c3ccc(N4CCN(C)CC4)nc3)n[nH]c2cn1 (stereo not drawn) [Example 240, 6-Fluoro-N-methyl-5-(3-(6-(4-methylpiperazin-1-yl)pyridin-3-yl)-1H-pyrazolo[3,4-c]pyridin-5-yl)-1,2,3,4-tetrahydronaphthalen-1-amine]
≤ 100 | CN1CCN(c2ccc(-c3n[nH]c4cnc(-c5c(F)ccc6c5CCCC6N)cc34)cc2)CC1 (stereo not drawn) [Example 241, 6-Fluoro-5-(3-(4-(4-methylpiperazin-1-yl)phenyl)-1H-pyrazolo[3,4-c]pyridin-5-yl)-1,2,3,4-tetrahydronaphthalen-1-amine]
